Measurements as given in patent US8685916B2, “Opioid prodrugs with heterocyclic linkers” (Signature Therapeutics, Inc., priority 2011, dated 2014).
Like-named read-outs stand apart in the source and are kept apart here.

Experiments:
trypsin [1] = biological target: T1, trypsin (Bos taurus, UniProt P00760); test: In vitro trypsin-mediated cleavage of hydrocodone prodrugs; format: biochemical, bovine; conditions: bovine, trypsin from bovine pancreas, pH 8; adjusted to 4815 BAEE U trypsin/mL; read-out: Prodrug trypsin half-life (converted)
T1 construct: purchased Sigma-Aldrich T8003; host or cells: bovine pancreas (tissue-derived preparation)
T1 sequence (P00760 24-246): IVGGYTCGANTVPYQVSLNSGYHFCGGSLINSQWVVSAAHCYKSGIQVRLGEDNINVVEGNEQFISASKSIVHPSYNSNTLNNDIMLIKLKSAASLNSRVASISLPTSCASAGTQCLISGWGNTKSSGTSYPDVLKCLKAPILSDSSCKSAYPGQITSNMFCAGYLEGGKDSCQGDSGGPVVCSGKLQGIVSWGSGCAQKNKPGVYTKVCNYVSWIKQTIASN
Procedure: (§1) The reactions were conducted at 37° C. for 24 h.
(§2) Table 9 indicates the results of exposure of the tested prodrugs to trypsin.

[2] = Pharmacokinetics of oxycodone prodrugs following PO administration to dogs; conditions: oxycodone in dog plasma, 5.7-[…] (prodrugs 4.15-[…]; oxycodone 2 mg/kg; OxyContin 20 mg tablet)
[3] = biological target: T2, trypsin from bovine pancreas (Bos taurus, UniProt P00760); test: In vitro trypsin-mediated cleavage of oxycodone prodrugs; format: biochemical; conditions: 0.761 mM prodrug, Tris pH 8, 37° C.
T2 construct: purchased Sigma-Aldrich T8003; host or cells: bovine pancreas (tissue-derived preparation)
T2 sequence (P00760 24-246): T1 sequence (P00760 24-246)
Procedure: as §1
(§3) Table 4 indicates the results of exposure of the tested prodrugs to trypsin. […] Table 4 also indicates the cyclization rate of the cyclizable spacer leaving group of Compound KC-9, Compound KC-11, and Compound KC-18. The results are expressed as half-life of compound disappearance. For Compound KC-11, a diastereomer, two peaks (A and B) were analyzed.

trypsin [4] = biological target: T1, trypsin; test: as above; format: biochemical, bovine; conditions: bovine, trypsin from bovine pancreas; 0.761 mM prodrug, Tris pH 8, 37° C.; adjusted to 4815 BAEE U trypsin/mL
Procedure: as §1, §3

[5] = Pharmacokinetics following PO administration of ketone-modified oxycodone prodrugs to rats
[6] = biological target: T2, trypsin from bovine pancreas; test: In vitro trypsin-mediated cleavage of hydrocodone prodrugs; format: biochemical
Procedure: as §1, §2

[7] = biological target: T2, trypsin from bovine pancreas; test: In vitro trypsin conversion of Compound TP-5 to tapentadol and inhibition by Compound 109; format: biochemical
Procedure: (§4) Other reaction, incubation, sample treatment and analysis procedures were similar to those described in Example 39.

trypsin [8] = biological target: T1, trypsin; test: as above; format: biochemical, bovine; conditions: bovine, trypsin from bovine pancreas, read-out: Pro-drug trypsin half-life, Average ± sd (converted)
Procedure: as §4

[9] = Oral administration of hydrocodone prodrugs KC-40 or KC-50 co-dosed with Compound 109 to rats; conditions: rat; for Cmax: HC Cmax ± sd
[10] = Pharmacokinetics of hydrocodone prodrugs following PO administration to dogs, with or without Compound 109
[11] = Pharmacokinetics following PO administration of increasing doses of Compound KC-31 to rats; conditions: male, Sprague Dawley, rat, plasma, 10 mg/kg
[12] = oxycodone in rat plasma, 28-34 μmol/kg (prodrugs 16-24 mg/kg; oxycodone 10 mg/kg)

Compound: COc1ccc2c3c1O[C@H]1C(OC(=O)N4CC(C(=O)O)CCC4CNC(=O)[C@H](CCCNC(=N)N)NC(=O)CNC(C)=O)=CC[C@H]4[C@@H](C2)N(C)CC[C@]314 (mixture of isomers) [Compound KC-32, N-(hydrocodone-6-enol-carbonyl)-[(2-methylamino)piperidine-3-carboxylate]-L-arginine-glycine-acetate]
- half-life at 0.761 mM (trypsin [1]): 9 min

Compound: COc1ccc2c3c1O[C@H]1C(OC(=O)N(C)CCNC(=O)[C@H](CCCNC(=N)N)NC(=O)CC(=O)O)=CC[C@@]4(O)[C@@H](C2)N(C)CC[C@]314 [Compound KC-3, N-1-[2-(oxycodone-6-enol-carbonyl-methyl-amino)-ethylamine]-L-arginine-malonate]
- AUC ± sd [2]: 65.6 ± 22 ng·h/mL
- OC Cmax ± sd [2]: 10.2 ± 3.3 ng/mL

Compound: COc1ccc2c3c1O[C@H]1C(OC(=O)N4CCCC4CNC(=O)[C@H](CCCNC(=N)N)NC(=O)CC(=O)O)=CC[C@@]4(O)[C@@H](C2)N(C)CC[C@]314 (stereo partly drawn) [Compound KC-10, N-(oxycodone-6-enol-carbonyl)pyrrolidine-2-methylamine-L-arginine-malonate]
- OC formation rate [3]: 0.00274 ± 0.00027 μmol/h/BAEE U
- half-life at 0.761 mM (trypsin [4]): 9.01 ± 0.306 min

Compound: COc1ccc2c3c1O[C@H]1C(OC(=O)N4CCCCC4CN)=CC[C@@]4(O)[C@@H](C2)N(C)CC[C@]314 (some centres unmarked) [Compound KC-11, N-(oxycodone-6-enol-carbonyl)piperidine-2-methylamine]
- AUC ± sd ([5]; oxycodone in rat plasma, 0 to 24 h, 28-34 μmol/kg (prodrugs 16-24 mg/kg; oxycodone 10 mg/kg)): 57.0 ± 9.0 ng·h/mL
- OC Cmax ± sd [5, 12]: 13.6 ± 3.0 ng/mL
- Tmax ± sd [5, 12]: 60 ± 0 min
- release of oxycodone compared with Compound KC-9 ([5]; rats): significantly more oxycodone than does Compound KC-9

Compound: COc1ccc2c3c1O[C@H]1C(OC(=O)N4CCCCC4CNC(=O)[C@H](CCCNC(=N)N)NC(=O)CC(=O)O)=CC[C@@]4(O)[C@@H](C2)N(C)CC[C@]314 (stereo partly drawn) [Compound KC-12, N-(oxycodone-6-enol-carbonyl)piperidine-2-methylamine-L-arginine-malonate]
- OC formation rate [3]: 0.231 ± 0.0097 μmol/h/BAEE U
- half-life at 0.761 mM (trypsin [4]): 9.498 ± 0.0114 min

Compound: COc1ccc2c3c1O[C@H]1C(OC(=O)N4CCCCC4CNC(=O)[C@H](CCCNC(=N)N)NC(=O)[C@H](C)NC(C)=O)=CC[C@@]4(O)[C@@H](C2)N(C)CC[C@]314 (stereo partly drawn) [Compound KC-13, N-(oxycodone-6-enol-carbonyl)piperidine-2-methylamine-L-arginine-L-alanine-acetate]
- OC formation rate [3]: 47.1 ± 5.72 μmol/h/BAEE U
- half-life at 0.761 mM (trypsin [4]): 0.0458 ± 0.00051 min

Compound: COc1ccc2c3c1O[C@H]1C(OC(=O)N4CCCCC4CNC(=O)[C@H](CCCNC(=N)N)NC(=O)CNC(C)=O)=CC[C@@]4(O)[C@@H](C2)N(C)CC[C@]314 (stereo partly drawn) [Compound KC-14, N-(oxycodone-6-enol-carbonyl)piperidine-2-methylamine-L-arginine-glycine-acetate]
- OC formation rate [3]: 5.48 ± 0.1 μmol/h/BAEE U
- half-life at 0.761 mM (trypsin [4]): 0.5143 ± 0.00198 min

Compound: COc1ccc2c3c1O[C@H]1C(OC(=O)N4CCCCC4CNC(=O)[C@H](CCCNC(=N)N)NC(=O)[C@H](C)NC(=O)CC(=O)O)=CC[C@@]4(O)[C@@H](C2)N(C)CC[C@]314 (stereo partly drawn) [Compound KC-15, N-(oxycodone-6-enol-carbonyl)piperidine-2-methylamine-L-arginine-L-alanine-malonate]
- OC formation rate [3]: 22.3 ± 0.8 μmol/h/BAEE U
- half-life at 0.761 mM (trypsin [4]): 0.173 ± 0.0114 min

Compound: COc1ccc2c3c1O[C@H]1C(OC(=O)N4CCCCC4CNC(=O)[C@H](CCCNC(=N)N)NC(=O)CNC(=O)CC(=O)O)=CC[C@@]4(O)[C@@H](C2)N(C)CC[C@]314 (stereo partly drawn) [Compound KC-16, N-(oxycodone-6-enol-carbonyl)piperidine-2-methylamine-L-arginine-glycine-malonate]
- OC formation rate [3]: 1.46 ± 0.093 μmol/h/BAEE U
- half-life at 0.761 mM (trypsin [4]): 2.37 ± 0.162 min

Compound: COc1ccc2c3c1O[C@H]1C(OC(=O)N4CCCC[C@@H]4CNC(=O)[C@H](CCCNC(=N)N)NC(=O)CNC(=O)CC(=O)O)=CC[C@@]4(O)[C@@H](C2)N(C)CC[C@]314 [Compound KC-17, N-(oxycodone-6-enol-carbonyl)-R-(piperidine-2-methylamine)-L-arginine-glycine-malonate]
- OC formation rate [3]: 1.23 ± 0.011 μmol/h/BAEE U
- half-life at 0.761 mM (trypsin [4]): 2.65 ± 0.117 min

Compound: COc1ccc2c3c1O[C@H]1C(OC(=O)N4CCCC[C@@H]4CNC(=O)[C@H](CCCNC(=N)N)NC(=O)CNC(=O)CC(=O)O)=CC[C@H]4[C@@H](C2)N(C)CC[C@]314 [Compound KC-31, N-(hydrocodone-6-enol-carbonyl)-R-(piperidine-2-methylamine)-L-arginine-glycine-malonate]
- half-life at 0.761 mM (trypsin [1]): 3.9 min

Compound: COc1ccc2c3c1O[C@H]1C(OC(=O)N4CCCC[C@@H]4CNC(=O)[C@H](CCCNC(=N)N)NC(=O)[C@H](C)NC(=O)CC(=O)O)=CC[C@H]4[C@@H](C2)N(C)CC[C@]314 [Compound KC-35, N-(hydrocodone-6-enol-carbonyl)-R-(piperidine-2-methylamine)-L-arginine-L-alanine-malonate]
- half-life at 0.761 mM (trypsin [1]): 0.48 min

Compound: COc1ccc2c3c1O[C@H]1C(OC(=O)N4CCCC[C@@H]4CNC(=O)[C@H](CCCNC(=N)N)NC(=O)CNC(C)=O)=CC[C@H]4[C@@H](C2)N(C)CC[C@]314 [Compound KC-36, N-(hydrocodone-6-enol-carbonyl)-R-(piperidine-2-methylamine)-L-arginine-glycine-acetate]
- HC formation rate [6]: 0.004 ± 0.00 μmol/h/BAEE U
- half-life at 0.761 mM (trypsin [1]): 1.08 min

Compound: COc1ccc2c3c1O[C@H]1C(OC(=O)N4CCCC[C@@H]4CNC(=O)[C@H](CCCNC(=N)N)NC(=O)[C@H](C)NC(C)=O)=CC[C@H]4[C@@H](C2)N(C)CC[C@]314 [Compound KC-37, N-(hydrocodone-6-enol-carbonyl)-R-(piperidine-2-methylamine)-L-arginine -L-alanine-acetate]
- HC formation rate [6]: 0.004 ± 0.00 μmol/h/BAEE U

Compound: COc1ccc2c3c1O[C@H]1C(OC(=O)N4CCCC[C@@H]4CNC(=O)[C@H](CCCNC(=N)N)NC(C)=O)=CC[C@H]4[C@@H](C2)N(C)CC[C@]314 [Compound KC-38, N-(hydrocodone-6-enol-carbonyl)-R-(piperidine-2-methylamine)-L-arginine-acetate]
- HC formation rate [6]: 0.001 ± 0.00 μmol/h/BAEE U
- half-life at 0.761 mM (trypsin [1]): 7.2 ± 0.6 min

Compound: COc1ccc2c3c1O[C@H]1C(OC(=O)N4CCCC[C@@H]4CNC(=O)[C@H](CCCNC(=N)N)NC(=O)CC(=O)O)=CC[C@H]4[C@@H](C2)N(C)CC[C@]314 [Compound KC-39, N-(hydrocodone-6-enol-carbonyl)-R-(piperidine-2-methylamine)-L-arginine-malonate]
- HC formation rate [6]: 0.00 ± 0.00 μmol/h/BAEE U
- half-life at 0.761 mM (trypsin [1]): 23.9 min

Compound: CC[C@@H](c1cccc(OC(=O)N2CCCCC2CNC(=O)[C@@H](CCCNC(=N)N)NC(=O)CC(=O)O)c1)[C@@H](C)CN(C)C (stereo partly drawn) [Compound TP-5, N-(Tapentadol-carbonyl)piperidine-2-methylamine-L-arginine-malonate]
- Rate of TP formation, Average ± sd ([7]; Compound 109 0 μM): 0.684 ± 0.036 μmol/h/BAEE U
- Rate of TP formation, Average ± sd ([7]; Compound 109 8 μM): 0.1043 ± 0.0049 μmol/h/BAEE U
- half-life (trypsin [8]; with Compound 109 (trypsin inhibitor), 8 µM): 62.4 ± 0.0366 min
- half-life (trypsin [8]): 3.99 ± 0.00024 min

Compound: COc1ccc2c3c1O[C@H]1C(=O)CC[C@H]4[C@@H](C2)N(C)CC[C@]314 [Hydrocodone, hydrocodone]
- Tmax ([9]; Sprague Dawley, plasma, po, […]): 63.6 min
- Cmax ([9]; Sprague Dawley, plasma, po, […], Table 11A: hydrocodone values in Table 10 adjusted to provide expected values at a […] (62 μmol/kg) dose): 11.9 ng/mL
- Cmax ([9]; Sprague Dawley, plasma, po, […], Table 11B: hydrocodone values in Table 10 adjusted to provide expected values at a 62 μmol/kg ([…]) dose): 12.4 ng/mL
- Tmax ± sd ([9]; Table 11B: hydrocodone values in Table 10 adjusted to provide expected values at a 62 μmol/kg ([…]) dose): 63.6 min
- HC Cmax ± sd ([10]; Table 12: dog, […] values adjusted to expected value for a 2 μmol/kg dose (4 dose equivalents)): 56.0 n/a^ ng/mL
- HC Cmax ± sd ([10]; Table 12: dog, […] values adjusted to expected value for a 5 μmol/kg dose (10 dose equiv)): 140 n/a^ ng/mL
- HC Cmax ± sd ([10]; Table 13: dog plasma, PO, hydrocodone […] (0.5 μmol/kg)): 14.0 ± 4.3^ ng/mL
- HC Cmax ± sd ([10]; Table 13: dog, […] values adjusted to expected value for a 5 μmol/kg dose (10 dose equiv)): 140 n/a^ ng/mL
- Cmax [11]: 5.49 ± 1.7 ng/mL
- Tmax [11]: 63.6 ± 43.2 min
